According to publication PMC7464559, “Synthesis, Optimization, Antifungal Activity, Selectivity, and CYP51 Binding of New 2-Aryl-3-azolyl-1-indolyl-propan-2-ols” (Pharmaceuticals, 2020):
In brackets after ≈: the same amount, converted by molar mass.

What was measured:
C. albicans CA98001 = experiment: Anti-Candida in vitro assay (Alamar Blue), C. albicans CA98001; type: cell-based; details: for MIC: Candida albicans, CA98001, 24 h, MIC = IC80, 24 h at 37 °C, mean of triplicate; for Times more active than FLC against C. albicans CA98001: ratio of MIC values versus FLC
Experimental: (§1) Test fungal strains were obtained from the American Type Culture Collection (ATCC) or were clinical isolates from the Laboratory of Parasitology and Medical Mycology, Centre Hospitalier Universitaire (CHU) of Nantes. The strains were maintained on Sabouraud agar slants and were subcultured 24 h before used. The activity of the target compounds 8a–g and 11a–m was determined by the method previously described. Briefly, molecules were diluted in RPMI 1640 medium supplemented with 0.165 M morpholinopropanesulphonic acid (Sigma-Aldrich, Saint-Quentin Fallavier, France), 2% glucose, and antibiotics. Candida suspensions were prepared in RPMI 1640 medium (Sigma-Aldrich, Saint-Quentin Fallavier, France) adjusted to give a final concentration of 10^3 cells/mL, and a 96-well microplate (Nunc, D. Dutscher, Brumath, France) was seeded with 100 µL. Each concentration of molecules (100 µL) to be tested was added (in triplicate) and plates were incubated at 37 °C for 24 h. The cellular viability was evaluated on the Fluorolite 1000 (Dynatech, France) with an excitation at 550 nm and an emission at 590 nm after a 4 h incubation with 10 µL of Alamar Blue®. […] MIC was expressed as the mean of the triplicate values. KTC and FLC were used as standards.

[1] = system: ATCC2091 Candida albicans strain; experiment: Anti-Candida in vitro assay, ATCC2091; type: cell-based; details: Candida albicans ATCC2091, mean of triplicate; read-out: MIC (IC80) ATCC2091
Experimental: as §1

[2] = system: CA98002 (Candida albicans); experiment: Anti-Candida in vitro assay, CA98002; type: cell-based; details: Candida albicans CA98002, mean of triplicate; read-out: MIC (IC80) CA98002
Experimental: as §1

[3] = system: ATCC6258 Candida krusei strain; experiment: Anti-Candida in vitro assay, ATCC6258; type: cell-based; details: Pichia kudriavzevii; Candida krusei ATCC6258, mean of triplicate; read-out: MIC (IC80) ATCC6258
Experimental: as §1

CK98002 (Candida krusei) = experiment: Anti-Candida in vitro assay, CK98002; type: cell-based; details: Pichia kudriavzevii; Candida krusei CK98002, mean of triplicate; read-out: MIC (IC80) CK98002
Experimental: as §1

CK98003 (Candida krusei) = experiment: Anti-Candida in vitro assay, CK98003; type: cell-based; details: Pichia kudriavzevii; Candida krusei CK98003, mean of triplicate; read-out: MIC (IC80) CK98003
Experimental: as §1

[4] = system: CL98001 (Candida lusitaniae); experiment: Anti-Candida in vitro assay, CL98001; type: cell-based; details: Clavispora lusitaniae; Candida lusitaniae CL98001, mean of triplicate; read-out: MIC (IC80) CL98001
Experimental: as §1

[5] = system: ATCC90018 Candida parapsilosis strain; experiment: Anti-Candida in vitro assay, ATCC90018; type: cell-based; details: Lodderomyces parapsilosis; Candida parapsilosis ATCC90018, mean of triplicate; read-out: MIC (IC80) ATCC90018
Experimental: as §1

aromatase (CYP19) = molecular target: T1, aromatase (CYP19) (Homo sapiens, UniProt P11511); experiment: In vitro inhibition of aromatase; type: biochemical; details: at 36 µM
T1 construct: Microsomal protein (0.1 mg) was added to start the reaction; from tissue; host or cells: microsomes; ('human placental microsomes')
T1 sequence (P11511 1-503): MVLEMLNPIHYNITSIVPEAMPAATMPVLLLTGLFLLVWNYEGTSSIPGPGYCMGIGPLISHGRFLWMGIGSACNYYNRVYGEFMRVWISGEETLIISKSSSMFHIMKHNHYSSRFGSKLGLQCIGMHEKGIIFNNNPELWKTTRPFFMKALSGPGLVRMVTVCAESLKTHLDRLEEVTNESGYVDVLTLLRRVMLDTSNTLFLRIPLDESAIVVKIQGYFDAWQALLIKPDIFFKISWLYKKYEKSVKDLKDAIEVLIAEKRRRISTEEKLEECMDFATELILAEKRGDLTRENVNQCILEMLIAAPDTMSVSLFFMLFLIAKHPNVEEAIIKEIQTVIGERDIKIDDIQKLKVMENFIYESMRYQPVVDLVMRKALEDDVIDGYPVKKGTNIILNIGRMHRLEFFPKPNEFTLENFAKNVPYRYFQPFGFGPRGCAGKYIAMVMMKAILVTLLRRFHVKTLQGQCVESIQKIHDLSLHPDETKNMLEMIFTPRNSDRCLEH
Experimental: The assay was performed according to previously described methods [49, 50, 51] by monitoring the enzyme activity by measuring the ^3H2O formed from [1β-^3H]androstenedione during aromatization. […] Microsomal protein (0.1 mg) was added to start the reaction. After incubation of 15 min at 30 °C, the reaction was stopped by adding 200 µL of a cold HgCl2 solution (1 mM). After the addition of 200 µL of an aqueous dextran-coated charcoal (DCC) suspension (2%), the vials were shaken then centrifuged to separate the charcoal-absorbed steroids. Aliquots of the supernatant were assayed for ^3H2O by counting in a scintillation mixture using a LKB-Wallac β-counter.

[6] = system: human fetal lung fibroblast (MRC-5) cells; parameters: method as in PMID 31899979; details: previously determined ref 28, read-out: Cytotoxicity IC50 on MRC-5 cells; cited from earlier work
MRC5 toxicity assay = type: cell-based, human; details: human, MRC-5 human fetal lung fibroblast cells, MRC-5 cells, 96-h incubation, mean of triplicate; read-out: Cytotoxicity IC50 on MRC-5 cells
Experimental: The cytotoxicity of compounds was studied with human fibroblast (MRC5). Cells were grown in RPMI 1640 medium (Sigma-Aldrich, Saint-Quentin Fallavier, France) supplemented with 10% fetal bovin serum (Sigma–Aldrich). Drugs were tested at three concentrations (100, 10, and 1 µM) in triplicate. After a 96-h incubation time, cytotoxicity was measured on the Fluorolite 1000 (Dynatech, Guyancourt, France) after a 4-h incubation time with Uptiblue® (Interchim, Montluçon, France). Inhibitory concentration 50 is a mean of triplicate values. A toxicity index was determined as follow: IC50 against MRC5/Geometric mean of the MICs against Candida spp..

[7] = molecular target: T2, retinoic acid 4-hydroxylase (CYP26A1) (Homo sapiens, UniProt O43174); experiment: MCF-7 cellular assay for inhibition of metabolism of all-trans retinoic acid; type: cell-based; details: mean (±5%) of two experiments
T2 construct: endogenous in cells; host or cells: MCF-7 human breast cancer cells
T2 sequence (O43174 1-497): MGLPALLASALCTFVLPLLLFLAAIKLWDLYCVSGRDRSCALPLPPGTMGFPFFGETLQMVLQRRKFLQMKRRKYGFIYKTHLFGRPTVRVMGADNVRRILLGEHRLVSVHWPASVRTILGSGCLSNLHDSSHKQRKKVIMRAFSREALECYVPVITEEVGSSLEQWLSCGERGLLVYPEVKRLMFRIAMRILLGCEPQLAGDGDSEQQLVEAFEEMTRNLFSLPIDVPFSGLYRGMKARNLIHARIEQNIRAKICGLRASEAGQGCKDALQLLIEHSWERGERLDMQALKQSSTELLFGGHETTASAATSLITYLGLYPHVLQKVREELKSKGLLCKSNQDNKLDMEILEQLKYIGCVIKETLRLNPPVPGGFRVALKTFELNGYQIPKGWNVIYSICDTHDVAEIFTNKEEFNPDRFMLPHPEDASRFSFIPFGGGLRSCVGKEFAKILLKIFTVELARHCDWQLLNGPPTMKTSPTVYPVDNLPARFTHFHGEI
Experimental: The HPLC system was equipped with a high-pressure pump (Milton–Roy pump, Stone, UK), injector with a 50 μL loop connected to a beta-RAM radioactivity detector, connected to a Compaq™ computer running Laura® data acquisition and analysis software. This enabled online detection and quantification of radioactive peaks. The 10 μM C18 μBondapak™ 3.9 × 300 mm HPLC column (Waters, UK) was used for the all-trans retinoic acid metabolism studies. The HPLC column operating at an ambient temperature was used to separate the metabolites, which were eluted with acetonitrile/1% ammonium acetate in water/acetic acid (75:25:0.1, v/v/v) at a flow rate of 1.9 mL/min. The Ecoscint™ was used as the flow scintillation fluid.
The separated [^3H]-metabolites were quantitatively calculated from the areas under the curves.

| SMILES | MIC (C. albicans CA98001) | Times more active than FLC against C. albicans CA98001 (C. albicans CA98001) | MIC [1] | MIC [2] | MIC [3] | MIC (CK98002 (Candida krusei)) | MIC (CK98003 (Candida krusei)) | MIC [4] | MIC [5] | inhibition at 36 µM (aromatase (CYP19)) | melting point | IC50 [6] | IC50 at 96 h (MRC5 toxicity assay) | IC50 [7] |
| --- | --- | --- | --- | --- | --- | --- | --- | --- | --- | --- | --- | --- | --- | --- |
| OC(Cn1cncn1)(Cn1ccc2ccccc21)c1ccc(Cl)cc1Cl (centres unmarked) [Compound 8g, 2-(2,4-Dichlorophenyl)-3-(1H-indol-1-yl)-1-(1H-1,2,4-triazol-1-yl)-propan-2-ol] | 0.000259 µg/mL (≈ 0.000669 µM) | ≈ 80 | < 0.004 µg/mL | < 0.004 µg/mL | 0.08 µg/mL (≈ 0.207 µM) | 2.79 µg/mL (≈ 7.2 µM) | 3.56 µg/mL (≈ 9.2 µM) | < 0.004 µg/mL | 0.15 µg/mL (≈ 0.387 µM) | 27% | 161 to 162 °C | 35 µM |  |  |
| O[C@@](Cn1cncn1)(Cn1ccc2ccccc21)c1ccc(Cl)cc1Cl [(+)-(R)-8g] | 0.023 µg/mL (≈ 0.0594 µM) |  | 1.01 µg/mL (≈ 2.6 µM) | 2.75 µg/mL (≈ 7.1 µM) | 24.4 µg/mL (≈ 63 µM) | 22.1 µg/mL (≈ 57 µM) | 19.4 µg/mL (≈ 50 µM) | 9.68 µg/mL (≈ 25 µM) | > 38.7 µg/mL | 51% |  |  | 32 µM | 34 µM |
| O[C@](Cn1cncn1)(Cn1ccc2ccccc21)c1ccc(Cl)cc1Cl [(−)-(S)-8g] | 0.000256 µg/mL (≈ 0.000661 µM) | ≈ 80 | < 0.039 µg/mL | < 0.039 µg/mL | 0.167 µg/mL (≈ 0.431 µM) | 0.022 µg/mL (≈ 0.0568 µM) | 0.039 µg/mL (≈ 0.101 µM) | 0.024 µg/mL (≈ 0.062 µM) | 0.027 µg/mL (≈ 0.0697 µM) | 72% |  |  | 30 µM | 18 µM |
